Consider two compounds from patent US20110237436A1, “Hydrate and anhydrous crystal form of the sodium salt of 2-iodo-N-[(4-methoxy-6-methyl-1,3,5-triazin-2-yl)carbamoyl]benzenesulfonamide, process for preparation thereof and use thereof as herbicides and plant growth regulators” (BAYER CROPSCIENCE AG, priority 2010, published 2011).

Series [1] can be described thus: Stability tests: storage of oil dispersions of the active ingredient. Format: physicochemical. The source says: The oil dispersions described were produced analogously to DE 19951427.
Series [2] can be described thus: Practical testing of suspension formulations. The class given is physicochemical. The conditions noted are these: effects occur spontaneously or over a longer period. From the text:
The compound of the formula (I) known, for example, from WO 2009/053058 (compound I-2 in table 1 therein) has herbicidal properties and is suitable for the production of crop protection compositions which can be employed for weed control. […] User-friendly administration forms are, for example, suspension formulations or solid formulations in which the compound of the formula (I) is present in finely ground, solid form. […] There may, for example, be precipitation, crystal growth or solidification, such that the suspension formulation becomes unusable. These effects can occur spontaneously or over a longer period and cannot be foreseen.

The mark [3] stands for this setting: oil dispersion produced analogously to DE 19951427, storage at different temperatures for several weeks.
The mark [4] stands for this setting: in the course of production of oil dispersions or storage at room temperature, within hours or a few days.

On to `COc1nc(C)nc(NC(=O)[N-]S(=O)(=O)c2ccccc2I)n1.[Na+]` [hydrate, hydrate of the sodium salt of 2-iodo-N-[(4-methoxy-6-methyl-1,3,5-triazin-2-yl)carbamoyl]benzenesulfonamide], for which, in series [1] (setting [3]), the “change in the viscosity of the oil dispersions” value is listed as “Nor was any change found in the viscosity” and the “signs of precipitation or crystallization of the active ingredient in the oil dispersion” value was “did not exhibit any signs of precipitation or crystallization of the active ingredient”.
Consider `COc1nc(C)nc(NC(=O)[N-]S(=O)(=O)c2ccccc2I)n1.[Na+]` [amorphous sodium salt, sodium salt of 2-iodo-N-[(4-methoxy-6-methyl-1,3,5-triazin-2-yl)carbamoyl]benzenesulfonamide], for which, in series [1] (setting [4]), the “change in viscosity of the oil dispersions” value is “significant rises in viscosity, up to and including complete solidification”; the “precipitation or crystallization of the active ingredient in the oil dispersion” value is on record as “precipitation or crystallization of the active ingredient”. Further, the “physical stability of suspension formulations” value in series [2] is on record as “physically unstable formulations”.
